Experimental findings from US9340510B2, “Tetrahydroisoquinoline derivatives, pharmaceutical compositions and uses thereof” (Boehringer Ingelheim International GmbH, priority 2014, dated 2016) are described below.

For the test, the target named is human ACC2 (Homo sapiens (Human), UniProt O00763). As to the kind of experiment: ACC2 assay: spectrophotometric 384 well assay (coupled lactate dehydrogenase/pyruvate kinase). Conditions: hACC2 construct lacking the 128 N-terminal amino acids, 25° C., 340 nm. The format is biochemical. In a few lines:
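N-terminally truncated human ACC2 from insect cells; ADP formation coupled via pyruvate kinase/lactate dehydrogenase, NADH loss read at 340 nm over 15 min at 25 °C, pH 7.5. Started with NADH, acetyl-CoA and 500 µM ATP; 1% DMSO. IC50 by nonlinear fit of background-subtracted slopes.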

pIC50: −log10 of the molar value.

Chain of human ACC2 (O00763 129-2458): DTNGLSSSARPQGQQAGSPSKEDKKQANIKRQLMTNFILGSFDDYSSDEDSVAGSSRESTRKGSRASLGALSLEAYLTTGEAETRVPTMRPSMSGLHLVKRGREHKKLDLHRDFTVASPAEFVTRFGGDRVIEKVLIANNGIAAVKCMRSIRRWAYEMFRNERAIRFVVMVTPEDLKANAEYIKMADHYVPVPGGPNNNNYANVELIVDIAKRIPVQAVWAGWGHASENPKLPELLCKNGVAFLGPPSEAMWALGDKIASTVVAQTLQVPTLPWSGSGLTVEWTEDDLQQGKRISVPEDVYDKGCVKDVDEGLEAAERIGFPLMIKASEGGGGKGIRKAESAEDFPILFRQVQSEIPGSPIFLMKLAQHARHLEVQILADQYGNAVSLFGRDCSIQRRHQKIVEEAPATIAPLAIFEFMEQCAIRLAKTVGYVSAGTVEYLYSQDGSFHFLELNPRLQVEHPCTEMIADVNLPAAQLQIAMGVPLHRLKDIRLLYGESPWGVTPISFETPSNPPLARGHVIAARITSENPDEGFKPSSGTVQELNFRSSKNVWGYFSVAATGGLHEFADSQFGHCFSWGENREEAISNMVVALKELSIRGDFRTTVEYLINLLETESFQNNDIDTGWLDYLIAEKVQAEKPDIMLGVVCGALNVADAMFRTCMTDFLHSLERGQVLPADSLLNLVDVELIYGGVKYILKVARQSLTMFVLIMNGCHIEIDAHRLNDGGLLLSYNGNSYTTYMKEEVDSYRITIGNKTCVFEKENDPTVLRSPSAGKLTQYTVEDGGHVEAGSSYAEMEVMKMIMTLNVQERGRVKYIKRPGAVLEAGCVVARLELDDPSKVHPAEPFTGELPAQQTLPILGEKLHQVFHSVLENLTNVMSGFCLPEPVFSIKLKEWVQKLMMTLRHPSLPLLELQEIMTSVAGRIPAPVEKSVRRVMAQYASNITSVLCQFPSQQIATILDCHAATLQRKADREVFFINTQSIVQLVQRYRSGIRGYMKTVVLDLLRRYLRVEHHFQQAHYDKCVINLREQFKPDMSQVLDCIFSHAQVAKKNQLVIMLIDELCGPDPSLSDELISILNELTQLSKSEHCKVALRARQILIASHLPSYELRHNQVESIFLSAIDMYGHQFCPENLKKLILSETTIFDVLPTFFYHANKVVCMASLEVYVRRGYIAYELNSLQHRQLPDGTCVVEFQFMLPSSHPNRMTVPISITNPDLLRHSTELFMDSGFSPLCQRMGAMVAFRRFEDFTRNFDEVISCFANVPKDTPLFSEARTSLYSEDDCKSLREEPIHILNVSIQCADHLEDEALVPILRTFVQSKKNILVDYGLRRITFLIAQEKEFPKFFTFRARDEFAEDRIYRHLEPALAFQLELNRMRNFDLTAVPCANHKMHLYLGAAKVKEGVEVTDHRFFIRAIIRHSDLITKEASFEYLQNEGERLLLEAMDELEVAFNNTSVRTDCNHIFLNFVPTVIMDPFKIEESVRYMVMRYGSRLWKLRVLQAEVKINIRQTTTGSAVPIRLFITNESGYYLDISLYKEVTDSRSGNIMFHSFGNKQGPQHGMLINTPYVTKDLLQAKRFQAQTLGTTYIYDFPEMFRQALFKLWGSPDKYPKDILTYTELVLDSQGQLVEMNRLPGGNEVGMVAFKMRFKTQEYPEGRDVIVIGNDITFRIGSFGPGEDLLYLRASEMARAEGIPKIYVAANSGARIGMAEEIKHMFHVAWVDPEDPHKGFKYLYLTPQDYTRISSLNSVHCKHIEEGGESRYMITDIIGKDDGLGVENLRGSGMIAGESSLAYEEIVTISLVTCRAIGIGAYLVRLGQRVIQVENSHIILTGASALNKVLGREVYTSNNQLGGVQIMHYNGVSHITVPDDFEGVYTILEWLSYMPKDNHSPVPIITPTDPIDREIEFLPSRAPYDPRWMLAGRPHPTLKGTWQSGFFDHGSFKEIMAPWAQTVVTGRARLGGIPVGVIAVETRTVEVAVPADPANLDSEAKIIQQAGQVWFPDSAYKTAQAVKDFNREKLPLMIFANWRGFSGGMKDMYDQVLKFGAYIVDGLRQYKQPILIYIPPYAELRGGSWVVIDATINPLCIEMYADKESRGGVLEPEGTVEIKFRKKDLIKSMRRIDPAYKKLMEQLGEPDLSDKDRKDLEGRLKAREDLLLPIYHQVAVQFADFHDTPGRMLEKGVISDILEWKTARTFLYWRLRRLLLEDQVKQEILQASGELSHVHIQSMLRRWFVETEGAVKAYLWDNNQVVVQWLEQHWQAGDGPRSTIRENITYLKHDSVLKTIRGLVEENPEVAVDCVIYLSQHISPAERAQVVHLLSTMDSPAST

As for `CC(=O)N[C@@H](C)c1ccc(CN2CCc3c(cccc3C(=O)NCc3ccccc3)C2)cc1` [Example 8.001, 2-[4-((S)-1-Acetylamino-ethyl)-benzyl]-1,2,3,4-tetrahydro-isoquinoline-5-carboxylic acid benzylamide], the pIC50 (commonly the negative decadic logarithm of the IC50, by convention in mol/L) was 6.15.

`COC(=O)C1c2ccc(OCC3CC3)cc2CCN1Cc1ccc([C@H](C)NC(C)=O)cc1` (stereo partly drawn) [Example 9.000, 2-[4-((S)-1-Acetylamino-ethyl)-benzyl]-6-cyclopropylmethoxy-1,2,3,4-tetrahydro-isoquinoline-1-carboxylic acid methyl ester] had a pIC50 of 6.72.
